Assay results taken from PMC12610573, “New Chlormequat-Based Ionic Liquids as Plant Resistance Inducers” (Molecules, 2025).

Legend:
[1] = Solubility tests in representative solvents (Vogel protocol); settings: 25 °C; for solubility: thermodynamic from solid
Protocol: The solubilities of the prepared ILs in ten representative solvents were determined according to the protocols from Vogel’s Textbook of Practical Organic Chemistry. The solvents chosen for the study were arranged in order of descending value of their Snyder polarity index: water—9.0, methanol—6.6, acetone—5.1, isopropanol—4.3, toluene—2.3, and hexane—0.0.

[2] = system: radish (Raphanus sativus) sprouts; assay: Phytotoxicity test on radish sprouts; format: in vivo; settings: for Mass of 25 Sprouts: radish, 5 days, UTC 3.09 g; for Reduction in Sprout Mass: compared with untreated control
Protocol: Twenty five seeds of radish (Raphanus sativus) were placed on a filter tissue in a Petri dish. […] Then, sprouts were weighted. All variants of treatment were tested together, with 3 replications (plates) in each of 2 cycles performed. Results were subjected to statistical analysis as described in Section 4.8.
(§1) Statistical significance of the effect of the treatments of plants with tested compounds on the phytotoxicity and SAR induction was assessed with the ANOVA test performed using the Statistica program StatSoft with software version 9.1 (StatSoft Sp. z o.o., Kraków, Poland). The statistical assumptions of normality and homogeneity of variances were verified prior to conducting the ANOVA tests. Differences between the means were estimated with Tukey’s HSD test at the significance level of p = 0.05.

[3] = system: Tobamovirus tabaci (tobacco mosaic virus, TMV) on Nicotiana tabacum cv. Xanthi; assay: SAR induction assay: necrotic area after TMV inoculation of sprayed tobacco; format: in vivo; settings: for SAR Induction (percentage of necrotic area on leaves): TMV inoculation after 7 days, read 7 days later, UTC 34.54; for Reduction in Necrotic Area: compared with untreated control plants; for Percentage of necrotic spot coverage (leaf shown in supplementary figure): single leaf image
Protocol: Plants of Nicotiana tabacum cv. Xanthi were grown under greenhouse conditions at 25 °C and 50% relative humidity, under natural daylight during the May–August growing season, with a natural photoperiod. The plants were sprayed with solutions containing the tested compounds.
In all experiments, the TMV SL-1 isolate Tobamovirus (TMV) was used. To obtain a viral inoculum, Nicotiana tabacum cv. Samsun plants were sap-inoculated with previously virus-infected plant material. After the appearance of disease symptoms on the infected plants (leaf mosaic), the virus was isolated by sucrose density gradient centrifugation with 0.01 M Tris-HCl, pH 7.0, to prepare the infectious inoculum. The concentration of virus in the obtained preparation was determined spectrophotometrically. The samples of TMV were stored at −20 °C until use.
The tested active substances at a given concentration were sprayed on tobacco plants with three fully developed leaves. The volume of working solution used was equal to 10 mL per plant. The compounds were dissolved in a water/propylene glycol solution (95/5, v/v). The plants of the untreated control variant were sprayed with a water/propylene glycol solution (95/5, v/v) that was used for the preparation of solutions of the tested compounds. After seven days, the plants were mechanically inoculated using purified viral preparations (0.01 ng/mL as described in [34]).
The plants were inoculated with the TMV inoculum at a concentration of 3.8 × 10^−4 ng per leaf. For each variant of treatment, 3 plants were sprayed, and 3 leaves of each plant were analyzed. The entire experiment was performed in 2 replicates. Necrotic areas on the leaves were determined using ImageJ software.
The surface of a leaf or an area with necrotic spots is represented by a set of pixels in the image, which are counted by the program. Reduction in necrotic area (ISAR) is expressed by the following formula:(1) ISAR=100−(At/Ac∗100) where At is the ratio of the area of necrotic spots caused by viral infection that appeared on the leaf treated with the test substance to the whole area of the leaf; Ac is the ratio of the area of the necrotic spots caused by viral infection that appeared on the leaf of the control plant to the whole area of the leaf.
as §1

[4] = Thermogravimetric analysis (TGA), thermal stability; settings: TGA under nitrogen, 10 °C/min; for Thermal Stability T5%onset: 5% weight loss onset; for Thermal Stability Tonset: decomposition onset
Protocol: TGA was performed on a TGA Q50 (Texas Instruments, Dallas, TX, USA) under nitrogen. Samples (5–10 mg) were heated from 25 °C to 500 °C at 10 °C/min with an isothermal step at 85 °C for 10 min. T5%onset and Tonset values were recorded.

[5] = topical, read-out: Reduction in Necrotic Area

Row | SMILES | Solubility in Hexane ([1]; Snyder polarity index 0.0) | Solubility in Toluene ([1]; Snyder polarity index 2.3) | Solubility in Isopropanol ([1]; Snyder polarity index 4.3) | Solubility in Acetone ([1]; Snyder polarity index 5.1) | Solubility in Methanol ([1]; Snyder polarity index 6.6) | Solubility in Water ([1]; Snyder polarity index 9.0) | Mass of 25 Sprouts ([2]; 125 mg/L) | Reduction in Sprout Mass ([2]; 250 mg/L) [%] | Mass of 25 Sprouts ([2]; 250 mg/L) | SAR Induction (percentage of necrotic area on leaves) ([3]; 125 mg/L spray) | Reduction in Necrotic Area ([3]; 125 mg/L) [%] | SAR Induction (percentage of necrotic area on leaves) ([3]; 250 mg/L spray) | Reduction in Necrotic Area ([3]; 250 mg/L) [%] | Thermal Stability T5%onset [4] [°C] | Thermal Stability Tonset [4] [°C] | Reduction in Sprout Mass ([2]; 125 mg/L) [%] | other results
1 | C[N+](C)(C)CCCl.O=C([O-])c1ccc(Cl)cc1O [[CC][4-ClSal]] | − (insoluble) | − (insoluble) | +/− (of limited solubility) | − (insoluble) | + (soluble) | +/− (of limited solubility) | 2.84 hi D g | 19.63 | 2.48 ij C g | 12.47 bc B % | 63.9 | 7.85 bcde A % | 77.3 | 205.3 | 137.2 |  | 
2 | C[N+](C)(C)CCCl.O=C([O-])c1cc(Cl)ccc1O [[CC][5-ClSal]] | − (insoluble) | − (insoluble) | +/− (of limited solubility) | − (insoluble) | + (soluble) | +/− (of limited solubility) | 2.50 efg D | 30.15 | 2.16 fgh C | 3.15 a AB % | 90.9 | 1.58 a A % | 95.4 | 217.1 | 138.5 | 19.15 | Percentage of necrotic spot coverage (leaf shown in supplementary figure) ([3]; 125 mg/L): 2.28%; Percentage of necrotic spot coverage (leaf shown in supplementary figure) ([3]; 250 mg/L): 1.15%; Difference in percentage reduction in leaf necrotic area between 125 mg/L and 250 mg/L ([3]; in vivo): approximately 4.5 percentage points
3 | C[N+](C)(C)CCCl.O=C([O-])c1cc(Cl)nc(Cl)c1 [[CC][Ina]] | − (insoluble) | − (insoluble) | +/− (of limited solubility) | − (insoluble) | + (soluble) | + (soluble) | 2.63 fgh D | 28.21 | 2.22 gh C | 14.80 cd AB % | 57.2 | 12.52 ef A % | 63.8 | 177.2 |  | 15.05 | 
4 | C[N+](C)(C)CCCl.O=C([O-])c1ccccc1O [[CC][Sal], chlormequat salicylate] |  |  |  |  |  |  | 2.82 hi C g | 26.91 | 2.26 hi B g | 19.99 de B % |  | 12.39 ef A % |  | 186.1 | 93.3 | 8.79 | solubility ([1]; organic solvent or mixture, Solubility in Acetone, Snyder polarity index 5.1): < 33.3 mg/mL; solubility ([1]; organic solvent or mixture, Solubility in Hexane, Snyder polarity index 0.0): < 33.3 mg/mL; solubility ([1]; organic solvent or mixture, Solubility in Isopropanol, Snyder polarity index 4.3): 33.3 to 100 mg/mL; solubility ([1]; organic solvent or mixture, Solubility in Methanol, Snyder polarity index 6.6): > 100 mg/mL; solubility ([1]; organic solvent or mixture, Solubility in Toluene, Snyder polarity index 2.3): < 33.3 mg/mL; solubility ([1]; water, Solubility (water)): > 100 mg/mL; solubility ([1]; water, Solubility in Water, Snyder polarity index 9.0): > 100 mg/mL; pest or weed control at 125 µg/mL [3, 5]: 42.1%; pest or weed control at 250 µg/mL [3, 5]: 64.1%
